From patent US7160898B2, “Pharmacological treatment for sleep apnea” (Board of Trustees of The University of Illinois, priority 2002, dated 2007)
Entries after “also recorded” stand apart in the source; their conditions may differ.

Key:
cardiovascular variables = experiment: Radiotelemetry of blood pressure and heart period after GR38032F (Example 2); assay type: in vivo, rat (Sprague-Dawley); conditions: 1 mg/kg i.p.
From the text: After surgery, all animals were allowed to recover for one week before being subjected to another surgery that involved implantation of a radiotelemetry transmitter (TA11-PXT, Data Sciences International, St. Paul, Minn.) for monitoring blood pressure (BP) and heart period (HP), estimated as pulse interval. After the animals were anesthetized (as described above), the hair from the subxiphoid space to the pelvis was removed. The entire area was scrubbed with iodine and rinsed with alcohol and saline. A 4–6 cm midline abdominal incision was made to allow good visualization of the area from the bifurcation of the aorta to the renal arteries. A retractor was used to expose the contents of the abdomen and the intestine was held back using saline moistened gauze sponges. The aorta was dissected from the surrounding fat and connective tissues using sterile cotton applicators. A 3-0 silk suture was placed beneath the aorta and traction was applied to the suture to restrict the blood flow. Then the implant (TA11-PXT) was held by forceps while the aorta was punctured just cranial to the bifurcation using a 21-gauge needle bent at the beveled end. The tip of the catheter was inserted under the needle using the needle as a guide until the thin-walled BP sensor section was within the vessel. Finally, one drop of tissue adhesive (Vetbond®, 3M, Minneapolis, Minn.) was applied to the puncture site and covered with a small square of cellulose fiber (approximately 5 mm^2) so as to seal the puncture after catheter insertion. The radio implant was attached to the abdominal wall by 3-0 silk suture, and the incision was closed in layers. After the second surgery, animals were again allowed a one week recovery period prior to administration of the serotonin receptor antagonist and subsequent physiological recording.
(§1) Physiological parameters (see below) from each animal were recorded on 2 occasions in random order, with recordings for an individual animal separated for at least 3 days. Fifteen minutes prior to each recording each animal received a systemic injection (1 ml/kg intraperitoneal bolus injection) of either saline (control) or 1 mg/kg of ondansetron (GR38032F; 1,2,3,9-tetrahydro-9-methyl-3-[(2-methylimidazol-1-yl)methyl]carbazole-4-one, hydrochloride, dihydrate; Glaxo Wellcome, Inc., Research Triangle Park, N.C.). Polygraphic recordings were made from hours 10:00–16:00.
Similar software (Experimenters' Workbench; Datawave Technologies, Longmont, Colo.) was employed to analyze the blood pressure waveform; for each beat of each recording, systolic (SBP) and diastolic (DBP) blood pressures and pulse interval were measured. The pulse interval provided a beat by beat estimate of HP. Mean BP (MBP) was estimated according to the weighted average of SBP and DBP for each beat: MBP=DBP+(SBP−DBP)/3. The parameters for each beat were also classified according to the sleep/wake state and recording hour during which they occurred.

[1] = test system: normalized minute ventilation; experiment: Plethysmographic minute ventilation after GR38032F (Example 2); assay type: in vivo, rat (Sprague-Dawley); conditions: 1 mg/kg i.p., 6 recording hours, vs control; hydrochloride, dihydrate
Description: as §1
Respiration was recorded by placing each animal, unrestrained, inside a single chamber plethysmograph (PLYUNIR/U; Buxco Electronics, Sharon, Conn.; dimension 6 in.×10 in.×6 in.) ventilated with a bias flow of fresh room air at a rate of 2 L/min. […]
An accepted physiological animal model [rat; Monti, et al., Pharamcol. […] More specifically, sleep apneas, defined as cessation of respiratory effort for at least 2.5 seconds, were scored for each recording session and were associated with the stage of sleep in which they occurred: NREM or REM sleep. […] The events detected represent central apneas because decreased ventilation associated with obstructed or occluded airways would generate an increased plethysmographic signal, rather than a pause. […]

Cc1nccn1CC1CCc2c(c3ccccc3n2C)C1=O.Cl.O.O (centres unmarked) [GR38032F, 1,2,3,9-tetrahydro-9-methyl-3-[(2-methylimidazol-1-yl)methyl]carbazole-4-one, hydrochloride, dihydrate]
HP, NREM (cardiovascular variables; NREM sleep, mean ± SE): 189 ± 3 ms | Mean BP, NREM (cardiovascular variables; NREM sleep, mean ± SE): 112 ± 17 mm Hg | HP, REM (cardiovascular variables; REM sleep, mean ± SE): 190 ± 3 ms | Mean BP, REM (cardiovascular variables; REM sleep, mean ± SE): 110 ± 17 mm Hg | effect on cardiovascular variables (MBP and HP during W, NREM, REM sleep) (cardiovascular variables; p>0.1 for each variable): no effect on any cardiovascular variable | HP, W (cardiovascular variables; wakefulness, mean ± SE): 183 ± 3 ms | Mean BP, W (cardiovascular variables; wakefulness, mean ± SE): 113 mm Hg | normalized minute ventilation during W, NREM and REM sleep [1]: significantly larger; also recorded: significant stimulation of ventilation during all behavioral states
